Assays:
Type in all cases: in vivo
[1] = test system: barnyardgrass (Echinochloa crus-galli (L.) P. Beauv. var. crus-galli); experiment: Test Example 3: herbicidal effect by application to upland field (foliage treatment); conditions: foliage treatment, plants grown two weeks, 1,000 g active ingredient per hectare, 14th day after application
Outline: (§1)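 Foliar spray on two-week-old greenhouse weeds in field soil: wettable powder formulation diluted in water, applied at 1,000 L/ha to give 1,000 g a.i./ha. Damage rated by a fixed scoring standard on day 14 after application.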

[2] = test system: slender amaranth (Amaranthus viridis L.); experiment: as above; conditions: foliage treatment, plants grown two weeks, 1,000 g active ingredient per hectare, 14th day after application
Outline: as §1

[3] = test system: green foxtail (Setaria viridis (L.) P. Beauv.); experiment: as above; conditions: foliage treatment, plants grown two weeks, 1,000 g active ingredient per hectare, 14th day after application
Outline: as §1

[4] = test system: velvetleaf (Abutilon theophrasti medicus); experiment: as above; conditions: foliage treatment, plants grown two weeks, 1,000 g active ingredient per hectare, 14th day after application
Outline: as §1

[5] = test system: heartshape false pickerelweed (Monochoria vaginalis (Burm.f.) C.Presl); experiment: Test Example 1: herbicidal effect by soil application to paddy field; conditions: paddy field soil application; active ingredient 1,000 g per 1 hectare; wettable powder added dropwise to water surface the day after sowing; examined on the 21st day after application
Outline: (§2)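 Under greenhouse conditions, seeds sown on puddled paddy soil in 100 cm2 pots under 3 cm of standing water received the test compound; injury was assessed with a standard scoring scheme three weeks (day 21) after treatment.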

[6] = test system: Japanese bulrush (Scirpus juncoides Roxb.); experiment: as above; conditions: paddy field soil application; active ingredient 1,000 g per 1 hectare; wettable powder added dropwise to water surface the day after sowing; examined on the 21st day after application
Outline: as §2

[7] = test system: early watergrass (Echinochloa oryzicola Vasing); experiment: as above; conditions: paddy field soil application; active ingredient 1,000 g per 1 hectare; wettable powder added dropwise to water surface the day after sowing; examined on the 21st day after application
Outline: as §2

[8] = test system: barnyardgrass (Echinochloa crus-galli (L.) P. Beauv. var. crus-galli); experiment: Test Example 2: herbicidal effect by soil application to upland field; conditions: soil surface spray, upland field soil, 1,000 g active ingredient per hectare, 21st day after application
Outline: (§3)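 Pots of field soil, seeds sown and soil-covered; wettable powder diluted in water sprayed on soil at 1,000 g a.i./ha (1,000 L/ha). Greenhouse-grown; herbicidal effect rated per standard at 21 days post-application.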

[9] = test system: slender amaranth (Amaranthus viridis L.); experiment: as above; conditions: soil surface spray, upland field soil, 1,000 g active ingredient per hectare, 21st day after application
Outline: as §3

[10] = test system: green foxtail (Setaria viridis (L.) P. Beauv.); experiment: as above; conditions: soil surface spray, upland field soil, 1,000 g active ingredient per hectare, 21st day after application
Outline: as §3

[11] = test system: velvetleaf (Abutilon theophrasti medicus); experiment: as above; conditions: soil surface spray, upland field soil, 1,000 g active ingredient per hectare, 21st day after application
Outline: as §3

SMILES	herbicidal effect (index), Barnyardgrass [1]	herbicidal effect (index), Slender Amaranth [2]	herbicidal effect (index), Green Foxtail [3]	herbicidal effect (index), Velvetleaf [4]	herbicidal effect, Monochoria vaginalis (Burm. f.) C. Presl [5]	herbicidal effect, Scirpus juncoides Roxb. [6]	herbicidal effect, Echinochloa oryzicola Vasing [7]	herbicidal effect (index), Barnyardgrass [8]	herbicidal effect (index), Slender Amaranth [9]	herbicidal effect (index), Green Foxtail [10]	herbicidal effect (index), Velvetleaf [11]
Cn1c(C(F)(F)F)ccc(C(=O)C2=C(O)CCCC2=O)c1=O [I-1, 2-[1,2-dihydro-1-methyl-2-oxo-6-(trifluoromethyl)-pyridine-3-carbonyl]-3-hydroxy-2-cyclohexen-1-one]	4 (70 to less than 90% of herbicidal effect and crop phytotoxicity)	5 (90% or more of herbicidal effect and crop phytotoxicity)	3 (50 to less than 70% of herbicidal effect and crop phytotoxicity)	5 (90% or more of herbicidal effect and crop phytotoxicity)	5 (90% or more of herbicidal effect and crop phytotoxicity)	5 (90% or more of herbicidal effect and crop phytotoxicity)	5 (90% or more of herbicidal effect and crop phytotoxicity)	5 (90% or more of herbicidal effect and crop phytotoxicity)	5 (90% or more of herbicidal effect and crop phytotoxicity)	4 (70 to less than 90% of herbicidal effect and crop phytotoxicity)	5 (90% or more of herbicidal effect and crop phytotoxicity)
CCCn1c(C(F)(F)F)ccc(C(=O)C2=C(O)CCCC2=O)c1=O [I-3]	5 (90% or more of herbicidal effect and crop phytotoxicity)	5 (90% or more of herbicidal effect and crop phytotoxicity)	5 (90% or more of herbicidal effect and crop phytotoxicity)	5 (90% or more of herbicidal effect and crop phytotoxicity)	5 (90% or more of herbicidal effect and crop phytotoxicity)	5 (90% or more of herbicidal effect and crop phytotoxicity)	5 (90% or more of herbicidal effect and crop phytotoxicity)	5 (90% or more of herbicidal effect and crop phytotoxicity)	5 (90% or more of herbicidal effect and crop phytotoxicity)	5 (90% or more of herbicidal effect and crop phytotoxicity)	5 (90% or more of herbicidal effect and crop phytotoxicity)
CC(C)n1c(C(F)(F)F)ccc(C(=O)C2=C(O)CCCC2=O)c1=O [I-4]	5 (90% or more of herbicidal effect and crop phytotoxicity)	5 (90% or more of herbicidal effect and crop phytotoxicity)	3 (50 to less than 70% of herbicidal effect and crop phytotoxicity)	5 (90% or more of herbicidal effect and crop phytotoxicity)	5 (90% or more of herbicidal effect and crop phytotoxicity)	5 (90% or more of herbicidal effect and crop phytotoxicity)	5 (90% or more of herbicidal effect and crop phytotoxicity)	5 (90% or more of herbicidal effect and crop phytotoxicity)	5 (90% or more of herbicidal effect and crop phytotoxicity)	4 (70 to less than 90% of herbicidal effect and crop phytotoxicity)	5 (90% or more of herbicidal effect and crop phytotoxicity)
CCCCn1c(C(F)(F)F)ccc(C(=O)C2=C(O)CCCC2=O)c1=O [I-5]	5 (90% or more of herbicidal effect and crop phytotoxicity)	5 (90% or more of herbicidal effect and crop phytotoxicity)	5 (90% or more of herbicidal effect and crop phytotoxicity)	5 (90% or more of herbicidal effect and crop phytotoxicity)	5 (90% or more of herbicidal effect and crop phytotoxicity)	5 (90% or more of herbicidal effect and crop phytotoxicity)	5 (90% or more of herbicidal effect and crop phytotoxicity)	5 (90% or more of herbicidal effect and crop phytotoxicity)	5 (90% or more of herbicidal effect and crop phytotoxicity)	5 (90% or more of herbicidal effect and crop phytotoxicity)	5 (90% or more of herbicidal effect and crop phytotoxicity)
CC(C)Cn1c(C(F)(F)F)ccc(C(=O)C2=C(O)CCCC2=O)c1=O [I-6]	5 (90% or more of herbicidal effect and crop phytotoxicity)	5 (90% or more of herbicidal effect and crop phytotoxicity)	5 (90% or more of herbicidal effect and crop phytotoxicity)	5 (90% or more of herbicidal effect and crop phytotoxicity)	5 (90% or more of herbicidal effect and crop phytotoxicity)	5 (90% or more of herbicidal effect and crop phytotoxicity)	5 (90% or more of herbicidal effect and crop phytotoxicity)	5 (90% or more of herbicidal effect and crop phytotoxicity)	5 (90% or more of herbicidal effect and crop phytotoxicity)	5 (90% or more of herbicidal effect and crop phytotoxicity)	5 (90% or more of herbicidal effect and crop phytotoxicity)
CCC(C)n1c(C(F)(F)F)ccc(C(=O)C2=C(O)CCCC2=O)c1=O (stereo not shown) [I-7]	5 (90% or more of herbicidal effect and crop phytotoxicity)	5 (90% or more of herbicidal effect and crop phytotoxicity)	5 (90% or more of herbicidal effect and crop phytotoxicity)	5 (90% or more of herbicidal effect and crop phytotoxicity)	5 (90% or more of herbicidal effect and crop phytotoxicity)	5 (90% or more of herbicidal effect and crop phytotoxicity)	5 (90% or more of herbicidal effect and crop phytotoxicity)	5 (90% or more of herbicidal effect and crop phytotoxicity)	5 (90% or more of herbicidal effect and crop phytotoxicity)	5 (90% or more of herbicidal effect and crop phytotoxicity)	5 (90% or more of herbicidal effect and crop phytotoxicity)
CCCCCCn1c(C(F)(F)F)ccc(C(=O)C2=C(O)CCCC2=O)c1=O [I-9]	5 (90% or more of herbicidal effect and crop phytotoxicity)	5 (90% or more of herbicidal effect and crop phytotoxicity)	4 (70 to less than 90% of herbicidal effect and crop phytotoxicity)	5 (90% or more of herbicidal effect and crop phytotoxicity)	5 (90% or more of herbicidal effect and crop phytotoxicity)	5 (90% or more of herbicidal effect and crop phytotoxicity)	5 (90% or more of herbicidal effect and crop phytotoxicity)	4 (70 to less than 90% of herbicidal effect and crop phytotoxicity)	5 (90% or more of herbicidal effect and crop phytotoxicity)	4 (70 to less than 90% of herbicidal effect and crop phytotoxicity)	5 (90% or more of herbicidal effect and crop phytotoxicity)
O=C1CCCC(O)=C1C(=O)c1ccc(C(F)(F)F)n(CC(F)(F)F)c1=O [I-10]	5 (90% or more of herbicidal effect and crop phytotoxicity)	5 (90% or more of herbicidal effect and crop phytotoxicity)	4 (70 to less than 90% of herbicidal effect and crop phytotoxicity)	5 (90% or more of herbicidal effect and crop phytotoxicity)	5 (90% or more of herbicidal effect and crop phytotoxicity)	5 (90% or more of herbicidal effect and crop phytotoxicity)	5 (90% or more of herbicidal effect and crop phytotoxicity)	5 (90% or more of herbicidal effect and crop phytotoxicity)	3 (50 to less than 70% of herbicidal effect and crop phytotoxicity)	3 (50 to less than 70% of herbicidal effect and crop phytotoxicity)	5 (90% or more of herbicidal effect and crop phytotoxicity)
